Laboratory results as given in US20240024395A1 (priority 2020, published 2024).

Tests used:
[1] = tested on: mycotoxicosis due to DON ingestion; design: Stomach ulcer: key to the marks not given beside the values; details: pig, in vivo
[2] = pig, in vivo, 0.05 mg/kg

Structure (SMILES): CC1=C[C@H]2O[C@@H]3[C@H](O)C[C@](C)([C@@]2(CO)[C@H](O)C1=O)[C@]31CO1 [DON, deoxynivalenol]
- ADG1 average daily weight gain over the first 15 days of the challenge [1]: 0.54
- ADG average daily weight gain over the last 13 days of the challenge [1]: 0.81
- Kidneys [1]: Pail
- Liver colour [1]: Pail
- Stomach inflammation [1]: ++/−
- Stomach ulcer [1]: ++
- villus/crypt ratio, average [1]: 1.09
- weight begin ([1]; po, 5.4 mg/kg): 12.69
- weight end ([1]; po, 5.4 mg/kg): 31.75
- AUC0→∞ of unbound DON [2]: 187 ± 33
- Cmax of unbound DON [2]: 30.8 ± 2.5
